We go through 18 molecules from patent US10618903B2, “Heteroaryl substituted aminopyridine compounds” (BRISTOL-MYERS SQUIBB COMPANY, priority 2015, dated 2020).

A word on the EC50: it is the concentration giving half of the maximal effect. In general, Papp refers to a coefficient for how fast a substance crosses the barrier. Low readings indicate poor permeation, high ones ready permeation. Broadly, the IC50 is the concentration at which inhibition is half-maximal.

Data set [1] concerns IL-6 levels in human whole blood stimulated with a TLR2 agonist. The data set is described as follows: IRAK4 Whole Blood Assay (lipoteichoic acid/TLR2-stimulated IL-6). Type of data set: cell-based. The conditions noted are these: lipoteichoic acid 10 μg/mL, IL-6 readout. The essentials:
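IL-6 was quantified by cytometric bead assay in supernatants of human blood (ACD-A) stimulated for 5 h with lipoteichoic acid at 10 μg/mL final. Compound exposure preceded stimulation for 60 min at 37 °C, 5% CO2.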

Data set [2] in a line: Caco Permeability Assay. The format is in vitro ADME. The conditions noted are these: human, Caco-2, Caco-2 cells, 3 μM compound.
Data set [3] has as its target IRAK4 (Homo sapiens (Human), UniProt Q9NWZ3). The data set is described as follows: IRAK4 Inhibition Assay. Type of data set: biochemical. The conditions noted are these: ATP 500 μM; IRAK4 0.6 nM. The essentials:
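Mobility-shift kinase assay: 0.6 nM IRAK4, 500 μM ATP, 1.5 μM fluorescent peptide, 60 min, room temperature. Percent inhibition was normalised between enzyme-free and DMSO-only wells.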

Sequence of IRAK4 (Q9NWZ3 whole entry): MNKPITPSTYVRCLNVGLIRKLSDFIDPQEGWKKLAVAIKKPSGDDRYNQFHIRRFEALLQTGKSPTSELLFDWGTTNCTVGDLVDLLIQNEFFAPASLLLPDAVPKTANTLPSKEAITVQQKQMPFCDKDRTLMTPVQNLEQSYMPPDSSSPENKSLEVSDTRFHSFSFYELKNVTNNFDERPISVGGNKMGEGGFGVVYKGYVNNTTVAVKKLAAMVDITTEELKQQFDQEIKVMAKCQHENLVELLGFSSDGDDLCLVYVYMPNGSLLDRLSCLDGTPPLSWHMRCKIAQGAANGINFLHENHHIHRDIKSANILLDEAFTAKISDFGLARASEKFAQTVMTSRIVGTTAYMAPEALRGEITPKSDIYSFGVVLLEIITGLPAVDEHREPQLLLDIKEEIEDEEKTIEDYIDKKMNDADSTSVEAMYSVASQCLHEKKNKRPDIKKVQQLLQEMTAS

`CC(C)(O)[C@H](F)CNC(=O)c1cnc(-c2cnc3cc(Cl)cnn23)cc1NC1COC1` [Example 141, (R)-6-(7-chloroimidazo[1,2-b]pyridazin-3-yl)-N-(2-fluoro-3-hydroxy-3-methylbutyl)-4-(oxetan-3-ylamino)nicotinamide] returned an EC50 in data set [1] (Homo sapiens) of 490 nM. The molecule further registered a Papp at 2 h, 3 µM in data set [2] of 5.2 ×10⁻⁶ cm/s. Also, in data set [3], the 50% inhibitory concentration (IC50) was 4 nM.
In data set [1] (Homo sapiens), `CC(C)Nc1cc(-c2cnc3cc(Cl)cnn23)ncc1C(=O)NC[C@@H](F)C(C)(C)O` [Example 142, (R)-6-(7-chloroimidazo[1,2-b]pyridazin-3-yl)-N-(2-fluoro-3-hydroxy-3-methylbutyl)-4-(isopropylamino)nicotinamide] had an EC50 of 100 nM. Besides, the Papp at 2 h, 3 µM in data set [2] worked out at 19 ×10⁻⁶ cm/s. In data set [3], the IC50 was determined as 3 nM.
With `CC(C)(O)[C@H](F)CNC(=O)c1cnc(-c2cnc3cc(Cl)cnn23)cc1NC1CCOCC1` [Example 143, (R)-6-(7-chloroimidazo[1,2-b]pyridazin-3-yl)-N-(2-fluoro-3-hydroxy-3-methylbutyl)-4-((tetrahydro-2H-pyran-4-yl)amino)nicotinamide], the EC50 in data set [1] (Homo sapiens) came out at 1080 nM. Besides, the Papp at 2 h, 3 µM in data set [2] stood at 8.2 ×10⁻⁶ cm/s. Moreover, the IC50 in data set [3] was 2 nM.
Regarding `CC(C)(O)[C@H](F)CNC(=O)c1cnc(-c2cnc3cc(Cl)cnn23)cc1NC1CC1` [Example 144, (R)-6-(7-chloroimidazo[1,2-b]pyridazin-3-yl)-4-(cyclopropylamino)-N-(2-fluoro-3-hydroxy-3-methylbutyl)nicotinamide], the response in data set [1] (Homo sapiens) was half-maximal at 230 nM (EC50). Further, the Papp at 2 h, 3 µM in data set [2] was found to be 13.4 ×10⁻⁶ cm/s. For the same molecule, the IC50 in data set [3] was 3 nM.
In turn, `CC(C)Nc1cc(-c2cnc3cc(C#N)cnn23)ncc1C(=O)NC[C@@H](F)C(C)(C)O` [Example 145, (R)-6-(7-cyanoimidazo[1,2-b]pyridazin-3-yl)-N-(2-fluoro-3-hydroxy-3-methylbutyl)-4-(isopropylamino)nicotinamide] yielded an EC50 in data set [1] (Homo sapiens) of 240 nM. Also, in data set [2], the Papp at 2 h, 3 µM came out at 12.3 ×10⁻⁶ cm/s. For the same molecule, the IC50 in data set [3] stood at 2 nM.
In data set [1] (Homo sapiens), `CC(C)(O)[C@H](F)CNC(=O)c1cnc(-c2cnc3cc(C#N)cnn23)cc1NC1CCOCC1` [Example 146, (R)-6-(7-cyanoimidazo[1,2-b]pyridazin-3-yl)-N-(2-fluoro-3-hydroxy-3-methylbutyl)-4-((tetrahydro-2H-pyran-4-yl)amino)nicotinamide] gave an EC50 of 150 nM. In addition, the Papp at 2 h, 3 µM in data set [2] is below 1.5 ×10⁻⁶ cm/s. Moreover, in data set [3], the 50% inhibitory concentration (IC50) is 2 nM.
Take `CC(C)(O)[C@H](F)CNC(=O)c1cnc(-c2cnc3cc(C#N)cnn23)cc1NC1COC1` [Example 147, (R)-6-(7-cyanoimidazo[1,2-b]pyridazin-3-yl)-N-(2-fluoro-3-hydroxy-3-methylbutyl)-4-(oxetan-3-ylamino) nicotinamide]: a half-maximal effect in data set [1] (Homo sapiens) (EC50) was put at 90 nM. The molecule also had a Papp at 2 h, 3 µM in data set [2] below 1.5 ×10⁻⁶ cm/s. In data set [3], the half-maximal inhibitory concentration (IC50) is 3 nM.
In the same order, the values of `Cc1cnn2c(-c3cc(NC(C)C)c(C(=O)NC[C@@H](F)C(C)(C)O)cn3)cnc2c1` [Example 148, (R)—N-(2-fluoro-3-hydroxy-3-methylbutyl)-4-(isopropylamino)-6-(7-methylimidazo[1,2-b]pyridazin-3-yl)nicotinamide] are 350 nM, 8.9 ×10⁻⁶ cm/s and 7 nM.
The molecule `CC[C@H](F)CNc1cc(-c2cnn3cc(Cl)cnc23)ncc1C(=O)NC[C@@H](F)C(C)(C)O` [Example 158, 6-(6-chloropyrazolo[1,5-a]pyrimidin-3-yl)-N—((R)-2-fluoro-3-hydroxy-3-methylbutyl)-4-(((S)-2-fluorobutyl)amino)nicotinamide] came in with an EC50 in data set [1] (Homo sapiens) of 870 nM. The same molecule had a Papp at 2 h, 3 µM in data set [2] of 14.8 ×10⁻⁶ cm/s. Also, the IC50 in data set [3] was found to be 5 nM.
`CC(C)(O)[C@H](F)CNC(=O)c1cnc(-c2cnn3cc(Cl)cnc23)cc1NCCC(F)(F)F` [Example 161, (R)-6-(6-chloropyrazolo[1,5-a]pyrimidin-3-yl)-N-(2-fluoro-3-hydroxy-3-methylbutyl)-4-((3,3,3-trifluoropropyl)amino)nicotinamide] returned a half-maximal effective concentration (EC50) in data set [1] of 610 nM. In addition, the Papp at 2 h, 3 µM in data set [2] was 15.3 ×10⁻⁶ cm/s. The IC50 in data set [3] was 6 nM.
The molecule `CC(C)(O)[C@H](F)CNC(=O)c1cnc(-c2cnn3cc(Cl)cnc23)cc1NCC(F)F` [Example 163, (R)-6-(6-chloropyrazolo[1,5-a]pyrimidin-3-yl)-4-((2,2-difluoroethyl)amino)-N-(2-fluoro-3-hydroxy-3-methylbutyl) nicotinamide] yielded an EC50 in data set [1] (Homo sapiens) of 760 nM. Besides, in data set [2], the Papp at 2 h, 3 µM was determined as 19.1 ×10⁻⁶ cm/s. The IC50 in data set [3] was 6 nM.
The molecule `CC(C)(O)[C@H](F)CNC(=O)c1cnc(-c2cnn3cc(Cl)cnc23)cc1NCCCO` [Example 164, (R)-6-(6-chloropyrazolo[1,5-a]pyrimidin-3-yl)-N-(2-fluoro-3-hydroxy-3-methylbutyl)-4-((3-hydroxypropyl)amino)nicotinamide] yielded an EC50 in data set [1] (Homo sapiens) of 270 nM. The same molecule returned a Papp at 2 h, 3 µM in data set [2] below 1.5 ×10⁻⁶ cm/s. In addition, the IC50 in data set [3] came to 11 nM.
The molecule `CC(C)Nc1cc(-c2cnn3cc(C#N)cnc23)ncc1C(=O)NCCC(C)(C)C#N` [Example 169, N-(3-cyano-3-methylbutyl)-6-(6-cyanopyrazolo[1,5-a]pyrimidin-3-yl)-4-(isopropylamino)nicotinamide] gave an EC50 in data set [1] (Homo sapiens) of 650 nM. Besides, in data set [2], the Papp at 2 h, 3 µM amounted to 14.2 ×10⁻⁶ cm/s. The IC50 in data set [3] came out at 8 nM.
In the same order, the values of `CC(C)(O)[C@H](F)CNC(=O)c1cnc(-c2cnn3cc(C#N)cnc23)cc1NCC(F)F` [Example 171, (R)-6-(6-cyanopyrazolo[1,5-a]pyrimidin-3-yl)-4-((2,2-difluoroethyl)amino)-N-(2-fluoro-3-hydroxy-3-methylbutyl)nicotinamide] are 360 nM, 1.9 ×10⁻⁶ cm/s and 6 nM.
In the same order, the values of `CC(F)(F)CNc1cc(-c2cnn3cc(C#N)cnc23)ncc1C(=O)NC[C@@H](F)C(C)(C)O` [Example 172, (R)-6-(6-cyanopyrazolo[1,5-a]pyrimidin-3-yl)-4-((2,2-difluoropropyl)amino)-N-(2-fluoro-3-hydroxy-3-methylbutyl)nicotinamide] are 460 nM, 4.2 ×10⁻⁶ cm/s and 4 nM.
Regarding `CC(C)Nc1cc(-c2cnc3cccnn23)ncc1C(=O)NC[C@@H](F)C(C)(C)O` [Example 177, (R)—N-(2-fluoro-3-hydroxy-3-methylbutyl)-6-(imidazo[1,2-b]pyridazin-3-yl)-4-(isopropylamino)nicotinamide], in data set [1], the EC50 worked out at 880 nM. The Papp at 2 h, 3 µM in data set [2] was found to be 12.6 ×10⁻⁶ cm/s. Further, in data set [3], the IC50 worked out at 10 nM.
Regarding `CCNc1cc(-c2cnc3cc(Cl)cnn23)ncc1C(=O)NC[C@@H](F)C(C)(C)O` [Example 178, (R)-6-(7-chloroimidazo[1,2-b]pyridazin-3-yl)-4-(ethylamino)-N-(2-fluoro-3-hydroxy-3-methylbutyl)nicotinamide], in data set [1] (Homo sapiens), the EC50 was found to be 710 nM. In data set [2], this molecule returned a Papp at 2 h, 3 µM of 21.5 ×10⁻⁶ cm/s. In data set [3], the IC50 came out at 4 nM.
`CCCNc1cc(-c2cnc3cc(Cl)cnn23)ncc1C(=O)NC[C@@H](F)C(C)(C)O` [Example 179, (R)-6-(7-chloroimidazo[1,2-b]pyridazin-3-yl)-N-(2-fluoro-3-hydroxy-3-methylbutyl)-4-(propylamino)nicotinamide] gave an EC50 in data set [1] (Homo sapiens) of 700 nM. Moreover, the Papp at 2 h, 3 µM in data set [2] is 16.8 ×10⁻⁶ cm/s. Further, the IC50 in data set [3] was found to be 3 nM.
